In brackets after ≈: the same amount, converted by molar mass. Where two headings read alike, the source gives them in different places.
Legend:
Assay type in all cases: cell-based
S. aureus isolate N441 = assay: MIC determination, broth microdilution, isolate N441; conditions: Staphylococcus aureus
S. aureus isolate U949 = assay: MIC determination, broth microdilution, isolate U949; conditions: Staphylococcus aureus
[1] = system: S. aureus ATCC 25923 (MSSA reference strain); assay: MIC determination, broth microdilution, ATCC 25923; conditions: Staphylococcus aureus
[2] = system: S. aureus ATCC 33591 (MRSA reference strain); assay: MIC determination, broth microdilution, ATCC 33591; conditions: Staphylococcus aureus
[3] = system: S. aureus isolates (MRSA and MSSA); assay: MIC determination, S. aureus isolates (MRSA and MSSA); conditions: Staphylococcus aureus, ATCC 25923 / ATCC 33591 / MRSA / MSSA; all four test isolates (N441, U949, ATCC 25923, ATCC 33591), preliminary evaluation

MIC (S. aureus isolate N441; isolate N441, read-out: MIC)	MIC (S. aureus isolate U949; isolate U949, read-out: MIC)	MIC ([1]; ATCC 25923, read-out: MIC)	MIC ([2]; ATCC 33591, read-out: MIC)	MIC [3]	Structure (SMILES)	MIC (S. aureus isolate N441)	MIC (S. aureus isolate U949)	MIC [1]	MIC [2]
500 µg/mL (≈ 1820 µM)	500 µg/mL (≈ 1820 µM)	1000 µg/mL (≈ 3630 µM)	500 µg/mL (≈ 1820 µM)	500 to 1000 µg/mL (≈ 1820 to 3630 µM)	CCOC(=O)C1=C(O)C(=O)N(C)C1c1ccc(C)cc1 (stereo not drawn) [compound 19e]	–	–	–	–
125 µg/mL (≈ 464 µM)	125 µg/mL (≈ 464 µM)	250 µg/mL (≈ 928 µM)	125 µg/mL (≈ 464 µM)	125 to 250 µg/mL (≈ 464 to 928 µM)	CCCCCCC1C(C(=O)OCC)=C(O)C(=O)N1C (stereo not drawn) [16e]	–	–	–	–
–	–	–	–	–	CN[C@H](CC(C)C)C(=O)N[C@H]1C(=O)N[C@@H](CC(N)=O)C(=O)N[C@H]2C(=O)N[C@H]3C(=O)N[C@H](C(=O)N[C@H](C(=O)O)c4cc(O)cc(O)c4-c4cc3ccc4O)[C@H](O)c3ccc(c(Cl)c3)Oc3cc2cc(c3O[C@@H]2O[C@H](CO)[C@@H](O)[C@H](O)[C@H]2O[C@H]2C[C@](C)(N)[C@H](O)[C@H](C)O2)Oc2ccc(cc2Cl)[C@H]1O [Vancomycin, reference compound]	1.56 µg/mL (≈ 1.08 µM)	1.56 µg/mL (≈ 1.08 µM)	0.78 µg/mL (≈ 0.538 µM)	3.13 µg/mL (≈ 2.16 µM)
> 1000 µg/mL	> 1000 µg/mL	> 1000 µg/mL	> 1000 µg/mL	–	C=CCOc1ccc(C2C(C(=O)OCC)=C(O)C(=O)N2C)cc1 (stereo not drawn) [27e]	–	–	–	–
125 µg/mL (≈ 340 µM)	250 µg/mL (≈ 680 µM)	250 µg/mL (≈ 680 µM)	125 µg/mL (≈ 340 µM)	125 to 250 µg/mL (≈ 340 to 680 µM)	CCOC(=O)C1=C(O)C(=O)N(Cc2ccccc2)C1c1ccc(OC)cc1 (stereo not drawn) [26e]	–	–	–	–

Structure (SMILES)	MIC (S. aureus isolate N441; isolate N441, read-out: MIC)	MIC (S. aureus isolate U949; isolate U949, read-out: MIC)	MIC ([1]; ATCC 25923, read-out: MIC)	MIC ([2]; ATCC 33591, read-out: MIC)	MIC [3]	MIC (S. aureus isolate N441)	MIC (S. aureus isolate U949)	MIC [1]	MIC [2]
Cc1onc(-c2ccccc2)c1C(=O)N[C@@H]1C(=O)N2[C@@H]1SC(C)(C)[C@@H]2C(=O)O [Oxacillin, reference compound]	500 µg/mL (≈ 1250 µM)	500 µg/mL (≈ 1250 µM)	0.24 µg/mL (≈ 0.598 µM)	250 µg/mL (≈ 623 µM)	–	–	–	–	–
